Consider one compound from patent US10857193B2, “Extract formulation of Opuntia ficus indica” (FINZELBERG GMBH & CO. KG, priority 2007, dated 2020).

This assay relates to blood glucose. In words: Oral glucose tolerance test (oGTT), hypoglycaemic effect in an animal model. Format: in vivo, Wistar rats. The note with it: oGTT in rats, result in words; FIG. 3 expressed as percent AUC vs control, n=5-6 per group. Here is the method: A standard means of testing extracts or novel chemical compounds for effects on blood sugar levels is the oGTT (Verspohl, 2002). This involves administering the extract, a blind control or a known anti-diabetic to different groups of a rat population and administering an […] dose of glucose to a sub-group of each group. The extracts were administered 30 minutes before the glucose. Blood samples were taken sublingually 0, 15, 30, 60 and 120 minutes after glucose administration or at 0, 30, 60, 120 and 180 minutes for baseline blood sugar levels. The sampling schedule described served both to track the effect of the extracts on baseline blood sugar levels over a longer period and to track the effect on blood sugar levels following a glucose load.
All of the tested extracts, the blind control and the glibenclamide reference oral anti-diabetic contained propylene glycol as a solubilising agent and were administered orally via a feeding tube. […]
The samples were centrifuged at 8600 U/min for 10 minutes. The plasma supernatant was then analysed using an autoanalyser (Merck, Darmstadt). […]
Concentrations and kinetic data were analysed in Graphpad 4.0 (San Diego, USA) using one-way variance analysis (ANOVA) and the Newman-Keuls multiple comparison test. The area under the curve (AUC) was determined using the trapezoidal method without extrapolation beyond the final sampling point.

As for `COc1ccc(Cl)cc1C(=O)NCCc1ccc(S(=O)(=O)NC(=O)NC2CCCCC2)cc1` [glibenclamide, Glibenclamide], the hypoglycaemic effect entry is “hypoglycaemic effect”.
